Test results taken from ChEMBL document CHEMBL1136440, “Design and synthesis of novel RXR-selective modulators with improved pharmacological profile” (Bioorg Med Chem Lett, 2003).
“And” between values parts separate entries of the source, which are not always exact repeats. Equal values may be shown once.

Key:
[1] = target: T1, Retinoic acid receptor RXR-alpha (Homo sapiens, UniProt P19793); experiment: In vitro antagonist activity against RXR alpha in CV-1 cells; format: functional, cell-based, Cercopithecidae
T1 sequence (P19793 whole entry): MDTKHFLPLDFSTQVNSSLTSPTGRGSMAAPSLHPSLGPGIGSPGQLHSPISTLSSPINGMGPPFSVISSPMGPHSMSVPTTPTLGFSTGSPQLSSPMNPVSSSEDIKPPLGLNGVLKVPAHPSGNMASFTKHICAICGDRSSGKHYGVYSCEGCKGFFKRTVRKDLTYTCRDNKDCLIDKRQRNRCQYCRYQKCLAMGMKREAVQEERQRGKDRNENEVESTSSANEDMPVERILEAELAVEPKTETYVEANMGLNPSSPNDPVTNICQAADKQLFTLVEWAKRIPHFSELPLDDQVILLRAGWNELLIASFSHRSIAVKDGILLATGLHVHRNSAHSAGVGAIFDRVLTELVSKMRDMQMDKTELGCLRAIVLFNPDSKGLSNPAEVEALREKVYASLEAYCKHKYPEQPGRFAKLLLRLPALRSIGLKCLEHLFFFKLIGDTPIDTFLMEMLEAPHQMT

[2] = target: T2, Retinoic acid receptor alpha (Homo sapiens) (UniProt P10276); experiment: Agonist synergy against RAR alpha was tested along with 3 nM TTNPB; format: functional; conditions: Cercopithecidae
T2 sequence (whole entry): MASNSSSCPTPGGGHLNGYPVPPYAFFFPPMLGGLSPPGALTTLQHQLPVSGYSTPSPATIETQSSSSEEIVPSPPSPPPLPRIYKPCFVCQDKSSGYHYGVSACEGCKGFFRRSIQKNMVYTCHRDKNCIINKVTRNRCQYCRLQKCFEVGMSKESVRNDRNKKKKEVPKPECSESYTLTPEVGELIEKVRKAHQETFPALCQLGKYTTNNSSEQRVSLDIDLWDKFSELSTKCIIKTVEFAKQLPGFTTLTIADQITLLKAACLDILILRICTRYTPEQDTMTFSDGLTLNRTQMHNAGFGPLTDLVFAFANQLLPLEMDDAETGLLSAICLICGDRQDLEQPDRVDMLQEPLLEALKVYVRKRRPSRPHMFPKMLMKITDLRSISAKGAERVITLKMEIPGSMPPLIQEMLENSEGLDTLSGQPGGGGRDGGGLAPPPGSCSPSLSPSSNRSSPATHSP

[3] = target: T3, Retinoic acid receptor gamma (Homo sapiens, UniProt P13631); experiment: Displacement of [3H]ATRA from RAR gamma receptor in CV-1 cells; […]; format: cell-based, Cercopithecidae
T3 sequence (P13631 whole entry): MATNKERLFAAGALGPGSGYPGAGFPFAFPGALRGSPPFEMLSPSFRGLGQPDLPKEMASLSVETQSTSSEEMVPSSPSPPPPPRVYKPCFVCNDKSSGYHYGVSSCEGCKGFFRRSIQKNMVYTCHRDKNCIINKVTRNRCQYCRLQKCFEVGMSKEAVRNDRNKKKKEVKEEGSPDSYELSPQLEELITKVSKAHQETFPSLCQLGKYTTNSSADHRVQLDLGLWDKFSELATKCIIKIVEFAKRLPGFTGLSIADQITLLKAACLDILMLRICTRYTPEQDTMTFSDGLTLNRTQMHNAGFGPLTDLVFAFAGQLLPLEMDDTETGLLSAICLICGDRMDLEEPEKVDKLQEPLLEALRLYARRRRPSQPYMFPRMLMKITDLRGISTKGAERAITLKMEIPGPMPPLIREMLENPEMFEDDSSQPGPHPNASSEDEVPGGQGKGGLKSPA

[4] = target: T4, Peroxisome proliferator-activated receptor gamma (Homo sapiens, UniProt P37231)
T4 sequence (P37231 whole entry): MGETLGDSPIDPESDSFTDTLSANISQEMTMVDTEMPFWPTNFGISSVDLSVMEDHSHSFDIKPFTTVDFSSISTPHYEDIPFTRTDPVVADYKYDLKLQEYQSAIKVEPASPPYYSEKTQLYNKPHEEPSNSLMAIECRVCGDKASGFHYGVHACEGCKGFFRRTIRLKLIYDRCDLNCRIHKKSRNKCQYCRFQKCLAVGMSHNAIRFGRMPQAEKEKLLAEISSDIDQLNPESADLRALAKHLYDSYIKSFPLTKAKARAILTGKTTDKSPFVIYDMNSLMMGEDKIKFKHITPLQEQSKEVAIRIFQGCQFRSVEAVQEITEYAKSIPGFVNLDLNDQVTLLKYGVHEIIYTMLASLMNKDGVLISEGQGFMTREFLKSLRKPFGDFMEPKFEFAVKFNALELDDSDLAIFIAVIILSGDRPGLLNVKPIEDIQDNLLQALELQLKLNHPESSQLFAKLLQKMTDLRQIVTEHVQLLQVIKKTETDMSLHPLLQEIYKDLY
Description: In vitro agonistic activity against PPAR gamma along with 100 nM BRL-49653

[5] = target: T4, Peroxisome proliferator-activated receptor gamma; remark: listed apart in the source
Description: In vitro agonist efficacy against PPAR gamma along with 100 nM BRL-49653

[6] = target: T1, Retinoic acid receptor RXR-alpha; experiment: biochemical
Description: Binding affinity against RXR alpha receptor using [3H]9-cis-RA as radioligand in CV-1 cells

[7] = Tmax value in IRC mice; format: ADME, organism-based; conditions: mouse, in vivo
[8] = Cmax value in IRC mice; format: ADME, organism-based; conditions: mouse, in vivo
[9] = Area under curve at 0-8 hr in IRC mice after peroral administration; format: ADME, organism-based; parameters: time < 8 hr, route oral; conditions: mouse, in vivo, po
[10] = target: T5, Retinoic acid receptor beta (Homo sapiens, UniProt P10826); experiment: Binding affinity against RAR beta receptor using [3H]ATRA as radioligand in CV-1 cells; format: cell-based, Cercopithecidae
T5 sequence (P10826 whole entry): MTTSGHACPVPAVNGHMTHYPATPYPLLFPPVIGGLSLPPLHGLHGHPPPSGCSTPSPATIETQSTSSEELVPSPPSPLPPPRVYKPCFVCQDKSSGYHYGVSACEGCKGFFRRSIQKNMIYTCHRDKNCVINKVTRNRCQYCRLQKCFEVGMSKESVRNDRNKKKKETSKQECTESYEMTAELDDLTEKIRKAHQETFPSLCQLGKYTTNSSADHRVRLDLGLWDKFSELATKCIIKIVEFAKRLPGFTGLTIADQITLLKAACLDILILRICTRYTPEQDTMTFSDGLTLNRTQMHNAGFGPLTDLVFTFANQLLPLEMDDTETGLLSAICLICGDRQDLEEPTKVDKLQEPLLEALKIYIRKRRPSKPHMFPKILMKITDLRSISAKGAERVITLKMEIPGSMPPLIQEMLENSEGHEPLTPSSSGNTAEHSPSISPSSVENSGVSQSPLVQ

[11] = target: T6, Retinoic acid receptor RXR-beta (Homo sapiens, UniProt P28702); experiment: Displacement of [3H]9-cis-RA from RXR beta receptor in CV-1 cells; format: cell-based, Cercopithecidae
T6 sequence (P28702 whole entry): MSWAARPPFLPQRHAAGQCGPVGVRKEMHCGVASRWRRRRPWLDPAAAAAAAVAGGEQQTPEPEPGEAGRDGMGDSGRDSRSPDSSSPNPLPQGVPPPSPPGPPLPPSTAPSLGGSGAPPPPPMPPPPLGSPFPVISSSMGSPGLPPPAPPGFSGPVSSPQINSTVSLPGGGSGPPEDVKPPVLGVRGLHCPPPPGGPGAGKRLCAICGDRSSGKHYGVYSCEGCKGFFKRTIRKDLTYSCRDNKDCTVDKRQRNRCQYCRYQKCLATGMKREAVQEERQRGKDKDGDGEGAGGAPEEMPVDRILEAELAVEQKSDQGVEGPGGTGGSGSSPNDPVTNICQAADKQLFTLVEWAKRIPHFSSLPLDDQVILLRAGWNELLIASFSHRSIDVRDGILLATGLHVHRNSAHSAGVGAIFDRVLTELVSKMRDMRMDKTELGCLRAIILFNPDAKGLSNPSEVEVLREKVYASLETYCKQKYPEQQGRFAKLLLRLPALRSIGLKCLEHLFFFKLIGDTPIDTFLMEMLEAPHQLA

[12] = target: T7, Retinoic acid receptor alpha (Homo sapiens, UniProt P10276); experiment: Binding affinity against RAR alpha receptor using [3H]ATRA as radioligand in CV-1 cells; format: cell-based, Cercopithecidae
T7 sequence (P10276 whole entry): T2 sequence (whole entry)

[13] = target: T8, Retinoic acid receptor RXR-gamma (Homo sapiens, UniProt P48443); experiment: Binding affinity against RXR gamma receptor using [3H]9-cis-RA as radioligand in CV-1 cells; format: cell-based, Cercopithecidae
T8 sequence (P48443 whole entry): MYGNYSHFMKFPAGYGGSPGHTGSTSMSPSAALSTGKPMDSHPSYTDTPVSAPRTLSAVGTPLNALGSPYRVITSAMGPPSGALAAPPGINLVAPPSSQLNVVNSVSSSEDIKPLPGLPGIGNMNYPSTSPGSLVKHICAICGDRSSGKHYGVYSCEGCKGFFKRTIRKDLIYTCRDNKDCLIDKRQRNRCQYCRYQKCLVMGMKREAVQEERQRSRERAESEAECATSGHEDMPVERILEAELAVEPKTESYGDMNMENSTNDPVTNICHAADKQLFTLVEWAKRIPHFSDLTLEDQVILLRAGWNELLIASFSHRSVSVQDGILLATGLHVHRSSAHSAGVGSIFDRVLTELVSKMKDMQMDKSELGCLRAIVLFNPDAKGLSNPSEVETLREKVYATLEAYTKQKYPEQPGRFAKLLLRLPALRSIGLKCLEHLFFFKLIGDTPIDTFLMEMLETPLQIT

[14] = target: T3, Retinoic acid receptor gamma; experiment: Binding affinity against RAR gamma receptor using [3H]ATRA as radioligand in CV-1 cells; format: cell-based, Cercopithecidae
[15] = target: T3, Retinoic acid receptor gamma; experiment: Displacement of [3H]ATRA from RAR gamma receptor expressed in CV-1 cells; format: cell-based, Cercopithecidae

Row | IC50 [1] | Synergy [2] | EC50 [4] | EC50 [5] | Tmax [7] | Cmax [8] | AUC(0-t) at 8 h [9] | Ki [10] | Ki [11] | Ki [12] | Ki [13] | Ki [14] | Ki [15] | SMILES | Ki [3] | Ki [6]
1 | 6.8 nM | 1.8 nM | 6.4 nM | 63 nM | 3 h | 3690 ng/mL and 8.41 µM | 17700 ng·h/mL | 5.68 µM | 11.5 nM | 8.3 µM | 13.2 nM | > 10 µM |  | CC(/C=C/C(F)=C(/C)c1cc(C(C)(C)C)cc(C(C)(C)C)c1OCC(F)F)=C\C(=O)O |  | 
2 | 10.7 nM | 9.4 nM | 15.1 nM | 29 nM |  |  |  | > 10 µM | 9.9 nM | > 10 µM | 23.6 nM |  | > 10 µM | CCCOc1c(\C(C)=C/C=C/C(C)=C/C(=O)O)cc(C(C)C)cc1C(F)(F)C(F)(F)F |  | 85.8 nM

Row | SMILES | IC50 [1] | Synergy [2] | EC50 [4] | EC50 [5] | Tmax [7] | Cmax [8] | AUC(0-t) at 8 h [9] | Ki [10] | Ki [11] | Ki [12] | Ki [13] | Ki [14] | Ki [15] | Ki [3] | Ki [6]
3 | C/C(=C/C=C/C(C)=C/C(=O)O)c1cc(-c2ccco2)cc(C(C)C)c1OCC(F)F | 3.6 nM | 1.2 nM | 7.4 nM | 37 nM |  |  |  |  |  |  |  |  |  | > 10 µM | 3 nM
